Assay results taken from ChEMBL document CHEMBL1201862, “PubChem BioAssay data set” (2004).
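A five-concentration, 48-hour dose response in 96-well plates underlies each endpoint, interpolated linearly between surrounding concentrations. At the GI50, growth is halved.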 Activity calls are given as the source filed them. No stated cut-off is given here; in the data, active = GI50 up to about 1.1 µM and inactive = higher.

Assays:
Test in all cases: inhibition of tumour cell growth, NCI panel, 48 h
786-0 = system: 786-0
A498 = system: A498
A549 = system: A549
ACHN = system: ACHN
COLO 205 = system: COLO 205
EKVX = system: EKVX
HOP-92 = system: HOP-92
Hs-578T = system: Hs-578T
MDA-MB-435 = system: MDA-MB-435
Malme-3M = system: Malme-3M
NCI-H23 = system: NCI-H23
NCI-H522 = system: NCI-H522
PC-3 = system: PC-3
RPMI-8226 = system: RPMI-8226
RXF 393 = system: RXF 393
SK-MEL-2 = system: SK-MEL-2
SK-MEL-5 = system: SK-MEL-5
T47D = system: T47D
TK-10 = system: TK-10
UACC-257 = system: UACC-257

Measured: GI50

c1ccc(CNCCCNCCCCNCCCNCc2ccccc2)cc1
inactive: 786-0 1.5 µM | A498 > 10 µM | A549 14.4 µM | ACHN 6.05 µM | COLO 205 1.82 µM | EKVX 9.42 µM | HOP-92 1.42 µM | Hs-578T 1.91 µM | MDA-MB-435 4.22 µM | Malme-3M 2.02 µM | NCI-H23 2.38 µM | NCI-H522 1.57 µM | PC-3 4.88 µM | RPMI-8226 2.22 µM | RXF 393 12.4 µM | SK-MEL-2 14.7 µM | SK-MEL-5 7.85 µM | T47D 10.8 µM | TK-10 5.69 µM | UACC-257 15 µM

CCSCC(N)C(=O)O (stereo not given)
inactive: 786-0 > 100 µM | A498 > 100 µM | A549 > 100 µM | ACHN > 100 µM | COLO 205 > 100 µM | EKVX > 100 µM | Hs-578T > 100 µM | MDA-MB-435 > 100 µM | Malme-3M > 100 µM | NCI-H23 > 100 µM | NCI-H522 > 100 µM | PC-3 > 100 µM | RPMI-8226 > 100 µM | RXF 393 > 100 µM | SK-MEL-2 > 100 µM | SK-MEL-5 > 100 µM | T47D > 100 µM | TK-10 > 100 µM | UACC-257 > 100 µM
active: HOP-92 0.0337 µM

O=C1CCSSCCC(=O)Nc2ccccc2N1
inactive: 786-0 > 100 µM | A498 > 100 µM | A549 > 100 µM | ACHN > 100 µM | COLO 205 > 100 µM | EKVX > 100 µM | HOP-92 > 100 µM | Hs-578T > 100 µM | MDA-MB-435 > 100 µM | Malme-3M > 100 µM | NCI-H23 > 100 µM | NCI-H522 > 100 µM | PC-3 > 100 µM | RPMI-8226 > 100 µM | RXF 393 > 100 µM | SK-MEL-2 > 100 µM | SK-MEL-5 > 100 µM | T47D > 100 µM | TK-10 > 100 µM | UACC-257 > 100 µM

O=C(O)C1C(C(=O)O)C(C(=O)O)C1C(=O)O (stereo not given)
inactive: 786-0 > 100 µM | A498 > 100 µM | A549 > 100 µM | ACHN > 100 µM | COLO 205 > 100 µM | EKVX > 100 µM | HOP-92 > 100 µM | Hs-578T > 100 µM | MDA-MB-435 > 100 µM | Malme-3M > 100 µM | NCI-H23 > 100 µM | NCI-H522 > 100 µM | PC-3 > 100 µM | RPMI-8226 > 100 µM | RXF 393 > 100 µM | SK-MEL-2 > 100 µM | SK-MEL-5 > 100 µM | T47D > 100 µM | TK-10 > 100 µM | UACC-257 > 100 µM

CSc1nc(C)cc(Nc2ccc(O)c(CN3CCOCC3)c2)n1
inactive: 786-0 > 100 µM | A498 > 100 µM | A549 > 100 µM | ACHN > 100 µM | COLO 205 > 100 µM | EKVX 83 µM | HOP-92 62.8 µM | Hs-578T > 100 µM | MDA-MB-435 > 100 µM | Malme-3M > 100 µM | NCI-H23 > 100 µM | NCI-H522 > 100 µM | PC-3 > 100 µM | RPMI-8226 > 100 µM | RXF 393 > 100 µM | SK-MEL-2 > 100 µM | SK-MEL-5 65 µM | T47D 71.9 µM | TK-10 > 100 µM | UACC-257 > 100 µM

O=C(CNc1ccc([N+](=O)[O-])cc1)Nn1c(-c2ccccc2)nc2ccccc2c1=O
inactive: 786-0 2.4 µM | A498 7.01 µM | A549 8.77 µM | ACHN 3.95 µM | COLO 205 2.28 µM | EKVX 13.4 µM | Hs-578T 2.73 µM | MDA-MB-435 3.96 µM | Malme-3M 2.03 µM | NCI-H23 2.43 µM | NCI-H522 1.72 µM | PC-3 3.07 µM | RPMI-8226 2.47 µM | RXF 393 2.82 µM | SK-MEL-2 2.15 µM | T47D 3.11 µM | TK-10 6.15 µM | UACC-257 7.78 µM
active: HOP-92 0.377 µM | SK-MEL-5 1.04 µM

Cc1ccc2c(n1)C(=O)C=CC2=O
inactive: 786-0 5.96 µM | A498 16.8 µM | A549 16.9 µM | ACHN 2.89 µM | COLO 205 2.14 µM | EKVX 7.03 µM | HOP-92 3.9 µM | Hs-578T 30.8 µM | MDA-MB-435 17.2 µM | Malme-3M 5.79 µM | NCI-H23 15.7 µM | NCI-H522 1.91 µM | PC-3 16.8 µM | RPMI-8226 2.59 µM | RXF 393 5.93 µM | SK-MEL-2 16.7 µM | SK-MEL-5 14.9 µM | T47D 1.88 µM | TK-10 2.52 µM | UACC-257 7.35 µM

CC(C)(C)/C(O)=C\c1nc2ccc(C(F)(F)F)cc2[nH]c1=O
inactive: 786-0 > 100 µM | A498 > 100 µM | A549 > 100 µM | ACHN > 100 µM | COLO 205 > 100 µM | EKVX > 100 µM | HOP-92 > 100 µM | Hs-578T > 100 µM | MDA-MB-435 > 100 µM | Malme-3M > 100 µM | NCI-H23 > 100 µM | NCI-H522 > 100 µM | PC-3 > 100 µM | RPMI-8226 > 100 µM | RXF 393 > 100 µM | SK-MEL-2 > 100 µM | SK-MEL-5 > 100 µM | T47D > 100 µM | TK-10 > 100 µM | UACC-257 > 100 µM

COC(OC)C1OCC(n2cc(F)c(=O)[nH]c2=O)C1O (stereo not given)
inactive: 786-0 > 100 µM | A498 > 100 µM | A549 > 100 µM | ACHN > 100 µM | COLO 205 > 100 µM | EKVX > 100 µM | HOP-92 > 100 µM | Hs-578T > 100 µM | MDA-MB-435 > 100 µM | Malme-3M > 100 µM | NCI-H23 > 100 µM | NCI-H522 > 100 µM | PC-3 > 100 µM | RPMI-8226 > 100 µM | RXF 393 42.9 µM | SK-MEL-2 > 100 µM | SK-MEL-5 > 100 µM | T47D > 100 µM | TK-10 > 100 µM | UACC-257 > 100 µM

OCCCCCNc1nc(O)c2[nH]cnc2n1
inactive: 786-0 > 100 µM | A498 > 100 µM | A549 > 10 µM | ACHN > 100 µM | COLO 205 > 100 µM | EKVX > 100 µM | HOP-92 > 100 µM | Hs-578T 90.8 µM | MDA-MB-435 > 100 µM | Malme-3M > 100 µM | NCI-H23 > 100 µM | NCI-H522 > 100 µM | PC-3 > 100 µM | RPMI-8226 > 100 µM | RXF 393 > 10 µM | SK-MEL-2 > 100 µM | SK-MEL-5 > 100 µM | T47D > 100 µM | TK-10 > 100 µM | UACC-257 > 100 µM
